This data set is described as follows: Solubility of rucaparib camsylate Form beta in USP standard buffers adjusted to different pHs, 37° C. Format: physicochemical. The procedure: The solubility of rucaparib camsylate Form beta was investigated in USP standard buffers adjusted to different pHs. For pH 1.2, the buffer solution included 3.73 g of potassium chloride dissolved in 100 ml of water which was mixed with […] of 0.2 M hydrochloric acid. Water was added to bring the volume to 1000 ml. For pH 4.5, the buffer solution included 2.99 g of sodium acetate dissolved in 100 ml of water which was mixed with 14 ml of 2 N acetic acid. Water was added to bring the volume to 1000 ml. For pH 6.0, the buffer preparation included 6.80 g of potassium phosphate dissolved in 100 ml of water which was mixed with 28 ml of 0.2 M sodium hydroxide. Water was added to bring the volume to 1000 ml. For pH 6.8, the buffer preparation included 6.80 g of potassium phosphate dissolved in 100 ml of water, which was mixed with 112 ml of 0.2 M sodium hydroxide. Water was added to volume of 1000 ml. For pH 8.0, the buffer preparation included 3.09 of boric acid and 3.73 g of potassium chloride dissolved in 100 ml of water, which was mixed with 19.5 ml of 0.2 sodium hydroxide. Water was added to bring volume to 1000 ml.

Where a name gives a salt, the structure may show the parent alone. Read-outs that look alike come from different tables or passages of the source. A value given as a limit tells only on which side of the number the result lay.

Broadly, the solubility is the concentration that dissolves in the medium under given conditions. Take `CNCc1ccc(-c2[nH]c3cc(F)cc4c3c2CCNC4=O)cc1` [Rucaparib Form beta, 8-fluoro-2-{4-[(methylamino)methyl]phenyl}-1,3,4,5-tetrahydro-6H-azepino[5,4,3-cd]indol-6-one ((1S,4R)-7,7dimethyl-2-oxobicyclo[2.2.1]hept-1-yl)methanesulfonic acid salt]: the solubility entry by setting is: (USP buffer pH 8.0, 37° C.) “Very slightly soluble”; (USP buffer pH 8.0, 37° C., listed as rucaparib camsylate Form beta) “slightly soluble”; (USP standard buffer pH 1.2, simulated gastric fluid, thermodynamic from solid, USP buffer pH 1.2, 37° C., read-out: Solubility) under 0.1 mg/mL; (USP standard buffer pH 4.5, aqueous buffer, thermodynamic from solid, USP buffer pH 4.5, 37° C., read-out: Solubility) under 0.1 mg/mL; (USP standard buffer pH 6.0, aqueous buffer, thermodynamic from solid, USP buffer pH 6.0, 37° C., read-out: Solubility) under 0.1 mg/mL; (USP standard buffer pH 6.8, aqueous buffer, thermodynamic from solid, USP buffer pH 6.8, 37° C., read-out: Solubility) under 0.1 mg/mL. In addition, the solubility entry reads like this: (most pH values (all tested except pH 8)) “practically insoluble”; (thermodynamic from solid, Water, 37° C., read-out: Solubility) under 0.1 mg/mL.
